Holding throughout (type): cell-based
Data set [1] concerns the target T1, Escherichia coli nfsB (NfsB) (Escherichia coli, UniProt P38489).
T1 construct: expressed in transfected cells; host or cells: MDA231 (MDA-231) human breast cancer cell line, clonal derivative MDA231 NTR
As to the kind of experiment: Multiplexed reporter detection with compounds 4 and 16 in MDA-231 cells expressing nfsB. As to the method:
(§1) Compounds 4 and 16 (as representative nitro-substituted aromatic compounds of the present invention) were utilized to exemplify the ability to detect individual cell populations. […] 30,000 cells were seeded into a plastic 96-well plate in a volume of 0.1 mL. After 2 h attachment samples were incubated with either 200 μM 16 or 100 μM 4 by dilution of DMSO stock solutions into culture medium and addition of 0.1 mL directly into wells. Plates were incubated for 4 h before being read on a fluorescent platereader at Ex/Em 355/460 and 485/535. Values represent the fluorescence in the presence of cells—blank (fluorescence in the absence of cells). When the data were collated it was evident that the fluorescent output of each cell population could be identified with minimal interference from the other reductases-generated fluorescent molecules. […] To establish the single cell specificity of compounds 4 and 16 for detection of activities in a mixed (co-cultured) cell population, cells were examined by fluorescent microscopy following concurrent exposure to compounds 4 and 16. […] Samples were incubated at 37° C. for 45 minutes, washed three times in PBS and images were acquired on a Nikon TE-2000 inverted fluorescence microscope. […]

The target in data set [2] is T2, E. coli nitroreductase (nfsB) (Escherichia coli, UniProt P38489).
T2 construct: expressed in transfected cells; host or cells: MDA231 (MDA-231) human breast cancer cell line, clonal derivative MDA231 NTR
T2 sequence (P38489 whole entry): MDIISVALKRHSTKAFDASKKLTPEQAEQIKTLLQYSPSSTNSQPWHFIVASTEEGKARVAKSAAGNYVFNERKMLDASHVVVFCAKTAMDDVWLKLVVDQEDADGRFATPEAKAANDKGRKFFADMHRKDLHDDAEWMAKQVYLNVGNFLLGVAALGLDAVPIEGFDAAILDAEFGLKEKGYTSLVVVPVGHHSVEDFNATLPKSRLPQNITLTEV
Nature of the data set: Entrapment of fluorescent products within nitroreductase expressing HCT116 cells. Conditions: washed; for cellular retention of fluorescence in nitroreductase expressing but not parental HCT116 cells: 10 μM for 1.5 hr, 6 hours post-exposure. The procedure:
The human colorectal cancer cell line (HCT116^WT) and a clonal derivative (HCT116^NTR) engineered to express the reporter gene E. coli nitroreductase (nfsB) under the control of a constitutive promoter were seeded onto glass coverslips at an equal density (50:50). Cells were equilibrated to 37° C., 5% CO2, and compound 1 and 13 was added to a final concentration of 100 μM for 1 hr. Cells were washed free of compound after 1 hour and fluorescence was monitored as a function of time (FIG. 8).
In further screening (FIG. 9), the human colorectal cancer cell line (HCT116^WT) and a clonal derivative (HCT116^NTR) engineered to express the reporter gene E. coli nitroreductase (nfsB) under the control of a constitutive promoter were seeded separately into a 96-well glass plate. Cells were equilibrated to 37° C., 5% CO2, and compounds were added to a final concentration of 10 μM for 1.5 hr. Cells were washed free of compound and fluorescence was monitored 6 hours post-exposure. […] The image has been rendered monochromatic for the purposes of publication quality.

In data set [3] the test system is Escherichia coli nfsB (NfsB) or human cytochrome P450 reductase (CYPOR). Nature of the data set: Multiplexed reporter detection with compounds 11 and 13 in MDA-231 WT, NfsB and CYPOR cells (fluorescence microscopy). The following applies: fluorescent microscope images, MDA-231 WT/NfsB/CYPOR. From the text:
Compounds 11 and 13 (as representative nitro-substituted aromatic compounds of the present invention) were utilized to exemplify the ability to detect individual cell populations. […] When the data were collated it was evident that the fluorescent output of each cell population could be identified with minimal interference from the other reductases-generated fluorescent molecules. […] To establish the single cell specificity of compounds 11 and 13 for detection of activities in a mixed (co-cultured) cell population, cells were examined by fluorescent microscopy following concurrent exposure to compounds 11 and 13. MDA-231 wild-type cells or cells expressing Escherichia coli nfsB and human cytochrome P450 reductase were mixed 1:1:1, seeded onto glass coverslips (15,000 cells/well in 0.1 mL αMEM+10% FCS+P/S) and allowed to attach overnight. Compound 11 and 13 were diluted into αMEM (from DMSO stock solutions) and 0.1 mL was added to achieve a final concentration of 10 μM and 100 μM respectively. Samples were incubated at 37° C. for 45 minutes, washed three times in PBS and images were acquired on a Nikon TE-2000 inverted fluorescence microscope. […] This illustrates that multiple independent outputs can be recorded from a single sample providing appropriate excitation and emission wavelengths are utilized. […]

The target of data set [4] is T3, human cytochrome P450 reductase (CYPOR) (Homo sapiens, UniProt P16435).
T3 construct: expressed in transfected cells; host or cells: MDA231 (MDA-231) human breast cancer cell line, clonal derivative MDA231 P450R
T3 sequence (P16435 1-677): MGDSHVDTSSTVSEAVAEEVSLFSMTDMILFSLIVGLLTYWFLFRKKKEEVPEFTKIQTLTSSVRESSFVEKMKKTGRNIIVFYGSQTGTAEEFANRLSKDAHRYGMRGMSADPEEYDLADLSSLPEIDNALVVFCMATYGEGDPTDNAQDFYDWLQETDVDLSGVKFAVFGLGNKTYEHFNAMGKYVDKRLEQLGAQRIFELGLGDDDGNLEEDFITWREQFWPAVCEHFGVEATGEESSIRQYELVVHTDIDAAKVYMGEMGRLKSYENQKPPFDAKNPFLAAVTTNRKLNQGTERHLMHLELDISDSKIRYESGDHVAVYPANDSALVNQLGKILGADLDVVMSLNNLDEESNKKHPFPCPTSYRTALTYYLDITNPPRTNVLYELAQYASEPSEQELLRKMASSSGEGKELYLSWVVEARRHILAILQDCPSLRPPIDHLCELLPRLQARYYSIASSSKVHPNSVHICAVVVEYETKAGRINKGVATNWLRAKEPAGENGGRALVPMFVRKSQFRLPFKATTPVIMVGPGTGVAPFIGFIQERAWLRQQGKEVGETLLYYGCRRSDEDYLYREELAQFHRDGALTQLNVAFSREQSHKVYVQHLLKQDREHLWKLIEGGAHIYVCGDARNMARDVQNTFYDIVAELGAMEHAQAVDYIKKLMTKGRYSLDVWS
Nature of the data set: Multiplexed reporter detection with compounds 4 and 16 in MDA-231 cells expressing CYPOR. The procedure: as §1

T1 sequence (P38489 whole entry): as the sequence (P38489 whole entry) above

`CN(C)CCNC(=O)c1cc([N+](=O)[O-])cc2c(=O)c3ccccc3[nH]c12` [Compound 4, N-[2-(Dimethylamino)ethyl]-2-nitro-9-oxo-9,10-dihydro-4-acridinecarboxamide]: in data set [1] (100 μM, 4 h, platereader, MDA-231 WT/NfsB/CYPOR), the “fluorescent output at Ex/Em 485/535 detecting Escherichia coli nfsB activity” value is reported as “gave fluorescent output”. Further, the “cellular retention of fluorescence in nitroreductase expressing but not parental HCT116 cells” value in data set [2] was “possessing cellular retention properties”.

Take `CN(C)CCCCN1C(=O)c2cccc3cc([N+](=O)[O-])cc(c23)C1=O` [Compound 11, 2-[4-(Dimethylamino)butyl]-5-nitro-1H-benzo[de]isoquinoline-1,3(2H)-dione]: the “fluorescent output at Ex/Em 485/535 detecting nfsB and CYPOR enzyme activities” value in data set [3] is recorded as “gave fluorescent output”.

As for `CN(C)CCCOc1ccnc2cc([N+](=O)[O-])ccc12` [Compound 14, N,N-dimethyl-3-[(7-nitro-4-quinolinyl)oxy]-1-propanamine], the “fluorescent emission colour on co-registration image (FITC filter set)” value in data set [1] (nfsB and CYPOR cells mixed 1:1, 10 μM, 45 minutes, microscopy) was “green”. The “cellular retention of fluorescence in nitroreductase expressing but not parental HCT116 cells” value in data set [2] is on record as “possessing cellular retention properties”.

`COC(=O)Cn1ccc(=O)c2cc([N+](=O)[O-])ccc21` [Compound 13, Methyl (6-nitro-4-oxo-1(4H)-quinolinyl)acetate]: the “fluorescent output at Ex/Em 355/460 detecting nfsB and CYPOR enzyme activities” value in data set [3] is recorded as “gave fluorescent output”. For the same compound, the “cellular retention of fluorescence in nitroreductase expressing but not parental HCT116 cells” value in data set [2] is recorded as “possessing cellular retention properties”. In addition, the “retention of fluorescence in cells after wash” value in data set [2] (HCT116 WT:HCT116 NTR 50:50 co-culture, 100 μM for 1 hr, by 4 hours) is listed as “still retained”.

Consider `CN(C)CCCNc1ncnc2cccc([N+](=O)[O-])c12` [Compound 16, N^1,N^1-dimethyl-N^3-(5-nitro-4-quinazolinyl)-1,3-propanediamine], for which the “fluorescent output at Ex/Em 355/460 detecting human CYPOR activity” value in data set [4] (200 μM, 4 h, platereader, MDA-231 WT/NfsB/CYPOR) was “gave fluorescent output”. In addition, the “fluorescent emission colour on co-registration image (DAPI filter set)” value in data set [4] (nfsB and CYPOR cells mixed 1:1, 300 μM, 45 minutes, microscopy) is reported as “blue”.

Values taken from patent publication US20100173332A1, “Method for the Fluorescent Detection of Nitroreductase Activity Using Nitro-Substituted Aromatic Compounds” (Auckland Uniservices Limited, priority 2006, published 2010).
